Experimental findings from patent US20260347373A1, “HETEROCYCLIC COMPOUNDS, COMPOSITIONS THEREOF, AND METHODS OF TREATMENT THEREWITH” (BeOne Medicines I GmbH, priority 2023, published 2026) are described below.

Counter-ions that a name gives are not always drawn. Like-named read-outs stand apart in the source and are kept apart here.

For assay [1], the target named is WT KRAS (Homo sapiens, UniProt P01116). Put plainly: KRAS WT Probe Displacement Assay (TR-FRET, GDP-loaded). The format is binding. An excerpt:
(§1) The synthetic routes of probe 1 and 2, which have been disclosed in PCT/CN2022/070676, are hereby incorporated herein.

The target of assay [2] is KRAS G12D (Homo sapiens, UniProt P01116, G12D). The assay can be described thus: KRAS G12D Probe Displacement Assay (TR-FRET, GDP-loaded). It counts as binding.
Excerpt: as §1
On the technique in general: In TR-FRET formats the signal depends on donor and acceptor labels being close together.

Setting [3] is: KRAS^WT Probe Displacement Assay IC50, KRAS WT.
[4] abbreviates: KRAS^G12D Probe Displacement Assay IC50, KRAS G12D.
Setting [5] is: KRAS WT, read-out: KRAS^WT Probe Displacement Assay IC50.
The mark [6] stands for this setting: KRAS G12D, read-out: KRAS^G12D Probe Displacement Assay IC50.

Chain of WT KRAS (P01116 1-188 isoform P01116-2): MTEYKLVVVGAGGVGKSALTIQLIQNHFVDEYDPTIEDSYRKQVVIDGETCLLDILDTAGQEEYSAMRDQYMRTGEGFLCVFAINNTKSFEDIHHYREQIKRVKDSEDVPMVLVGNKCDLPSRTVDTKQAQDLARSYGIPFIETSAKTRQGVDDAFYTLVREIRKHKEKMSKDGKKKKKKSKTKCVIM
Chain of KRAS G12D (P01116 1-188 isoform P01116-2 G12D): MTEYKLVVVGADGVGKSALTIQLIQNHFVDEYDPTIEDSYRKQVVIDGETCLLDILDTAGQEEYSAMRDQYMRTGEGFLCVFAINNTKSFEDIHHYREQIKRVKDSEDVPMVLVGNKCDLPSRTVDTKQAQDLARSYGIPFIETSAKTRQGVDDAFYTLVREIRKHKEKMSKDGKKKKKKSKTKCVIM

Broadly, the IC50 is the midpoint of a concentration-inhibition curve. In the case of `Cc1cc(N)cc(-c2nc3c4c(nc(OCC5(CN6C7COCC6C7)CC5)nc4c2F)N2C[C@H]4CC[C@H](N4)[C@H]2CCO3)c1C(F)(F)F` [Example 104, 3-((6aR,7S,10R)-13-((1-((3-oxa-6-azabicyclo[3.1.1]heptan-6-yl)methyl)cyclopropyl)methoxy)-1-fluoro-5,6,6a,7,8,9,10,11-octahydro-4-oxa-3,11a,12,14,15-pentaaza-7,10-methanocyclohepta [4,5]cycloocta [1,2,3-de]naphthalen-2-yl)-5-methyl-4-(trifluoromethyl) aniline formate], the values for the IC50 in assay [1] (setting [3]) and in assay [2] (setting [4]) were 3 to 1000 nM and less than 0.3 nM, respectively.

As for `Cc1cc(N)cc(-c2nc3c4c(nc(OCC5(CN(C)C)CC5)nc4c2F)N2C[C@H]4CC[C@H](N4)[C@H]2CCO3)c1C(F)(F)F` [Example 56, 3-((6aR,7S,10R)-13-((1-((dimethylamino)methyl)cyclopropyl)methoxy)-1-fluoro-5,6,6a,7,8,9,10,11-octahydro-4-oxa-3,11a,12,14,15-pentaaza-7,10-methanocyclohepta[4,5]cycloocta [1,2,3-de]naphthalen-2-yl)-5-methyl-4-(trifluoromethyl)aniline], the IC50 in assay [1] (setting [5]) is 3 to 1000 nM; in assay [2] (setting [6]), less than 0.3 nM.

As to `Cc1cc(N)cc(-c2nc3c4c(nc(OCC5(CN6CCCC67CCOC7)CC5)nc4c2F)N2C[C@H]4CC[C@H](N4)[C@H]2CCO3)c1C(F)(F)F` (stereo partly drawn) [Example 190, 3-((6aR,7S,10R)-13-((1-((7-oxa-1-azaspiro[4.4]nonan-1-yl)methyl)cyclopropyl)methoxy)-1-fluoro-5,6,6a,7,8,9,10,11-octahydro-4-oxa-3,11a,12,14,15-pentaaza[7,10]methanocyclohepta[4,5]cycloocta[1,2,3-de]naphthalen-2-yl)-5-methyl-4-(trifluoromethyl)aniline], the IC50 in assay [1] (setting [5]) is 3 to 1000 nM; in assay [2] (setting [6]), less than 0.3 nM.

Regarding `Cc1cc(N)cc(-c2nc3c4c(nc(OCC5(CN6CCN(C7COC7)CC6)CC5)nc4c2F)N2C[C@H]4CC[C@H](N4)[C@H]2CCO3)c1C(F)(F)F` [Example 191, 3-((6aR,7S,10R)-1-fluoro-13-((1-((4-(oxetan-3-yl)piperazin-1-yl)methyl)cyclopropyl)methoxy)-5,6,6a,7,8,9,10,11-octahydro-4-oxa-3,11a,12,14,15-pentaaza-7,10-methanocyclohepta[4,5]cycloocta[1,2,3-de]naphthalen-2-yl)-5-methyl-4-(trifluoromethyl)aniline], the IC50 in assay [1] (setting [5]) is 3 to 1000 nM; in assay [2] (setting [6]) it was less than 0.3 nM.

For the compound `COC1CN(CC2(COc3nc4c5c(nc(-c6cc(N)cc(C)c6C(F)(F)F)c(F)c5n3)OCC[C@@H]3[C@@H]5CC[C@H](CN43)N5)CC2(F)F)C1` (single isomer, unassigned) [Example 20], the IC50 in assay [1] (setting [3]) was 3 to 1000 nM; in assay [2] (setting [4]), less than 0.3 nM.

With `Nc1cc(Cl)c(C(F)(F)F)c(-c2nc3c4c(nc(OCC5(CN6CCC(=C(F)F)C6)CC5)nc4c2F)N2C[C@H]4CC[C@H](N4)[C@H]2CCO3)c1` [Example 151, 3-chloro-5-((6aR,7S,10R)-13-((1-((3-(difluoromethylene)pyrrolidin-1-yl)methyl)cyclopropyl)methoxy)-1-fluoro-5,6,6a,7,8,9,10,11-octahydro-4-oxa-3,11a,12,14,15-pentaaza-7,10-methano-cyclohepta[4,5]cycloocta [1,2,3-de]naphthalen-2-yl)-4-(trifluoromethyl)aniline], the values for the IC50 in assay [1] (setting [5]) and in assay [2] (setting [6]) were 3 to 1000 nM and less than 0.3 nM, respectively.

On to `Cc1cc(N)cc(-c2nc3c4c(nc(OCC5(CN6CCC(C(F)(F)F)CC6)CC5)nc4c2F)N2C[C@H]4CC[C@H](N4)[C@H]2CCO3)c1C(F)(F)F` [Example 113, 3-((6aR,7S,10R)-1-fluoro-13-((1-((4-(trifluoromethyl)piperidin-1-yl)methyl)cyclopropyl)methoxy)-5,6,6a,7,8,9,10,11-octahydro-4-oxa-3,11a,12,14,15-pentaaza-7,10-methanocyclohepta [4,5]cycloocta [1,2,3-de]naphthalen-2-yl)-5-methyl-4-(trifluoromethyl) aniline], for which the values for the IC50 in assay [1] (setting [3]) and in assay [2] (setting [4]) were 0.3 to 3 nM and less than 0.3 nM, respectively.

Consider `Cc1cc(N)cc(-c2nc3c4c(nc(OCC5(CN6CCCC6)CC5)nc4c2F)N2C[C@H]4CC[C@H](N4)[C@H]2CCO3)c1C(F)(F)F` [Example 77, 3-((6aR,7S,10R)-1-fluoro-13-((1-(pyrrolidin-1-ylmethyl)cyclopropyl)methoxy)-5,6,6a,7,8,9,10,11-octahydro-4-oxa-3,11a,12,14,15-pentaaza-7,10-methanocyclohepta[4,5]cycloocta[1,2,3-de]naphthalen-2-yl)-5-methyl-4-(trifluoromethyl)aniline], for which the values for the IC50 in assay [1] (setting [5]) and in assay [2] (setting [6]) were 3 to 1000 nM and less than 0.3 nM, respectively.

Regarding `Cc1cc(N)cc(-c2nc3c4c(nc(OCC5(CN6CCCC(O)(C(F)(F)F)C6)CC5)nc4c2F)N2C[C@H]4CC[C@H](N4)[C@H]2CCO3)c1C(F)(F)F` (stereo partly drawn) [Example 117, 1-((1-((((6aR,7S,10R)-2-(5-amino-3-methyl-2-(trifluoromethyl)phenyl)-1-fluoro-5,6,6a,7,8,9,10,11-octahydro-4-oxa-3,11a,12,14,15-pentaaza-7,10-methanocyclohepta [4,5]cycloocta [1,2,3-de]naphthalen-13-yl)oxy)methyl)cyclopropyl)methyl)-3-(trifluoromethyl) piperidin-3-ol], the IC50 in assay [1] (setting [5]) is 3 to 1000 nM; in assay [2] (setting [6]), less than 0.3 nM.

With `Cc1cc(N)cc(-c2nc3c4c(nc(OCC5(CN6CCOC7(CC7)C6)CC5)nc4c2F)N2C[C@H]4CC[C@H](N4)[C@H]2CCO3)c1C(F)(F)F` [Example 120, 3-((6aR,7S,10R)-13-((1-((4-oxa-7-azaspiro[2.5]octan-7-yl)methyl)cyclopropyl)methoxy)-1-fluoro-5,6,6a,7,8,9,10,11-octahydro-4-oxa-3,11a,12,14,15-pentaaza[7,10]methanocyclohepta [4,5]cycloocta[1,2,3-de]naphthalen-2-yl)-5-methyl-4-(trifluoromethyl)aniline], the IC50 in assay [1] (setting [5]) is 0.3 to 3 nM; in assay [2] (setting [6]), less than 0.3 nM.

On to `Cc1cc(N)cc(-c2nc3c4c(nc(OC[C@H]5COC[C@H]5N(C)C)nc4c2F)N2C[C@H]4CC[C@H](N4)[C@H]2CCO3)c1C(F)(F)F` [Example 41, (3S,4R)-4-((((6aR,7S,10R)-2-(5-amino-3-methyl-2-(trifluoromethyl)phenyl)-1-fluoro-5,6,6a,7,8,9,10,11-octahydro-4-oxa-3,11a,12,14,15-pentaaza-7,10-methanocyclohepta[4,5]cycloocta [1,2,3-de]naphthalen-13-yl)oxy)methyl)-N,N-dimethyltetrahydrofuran-3-amine], for which the IC50 fell in the range of 3 to 1000 nM in assay [1] (setting [5]) and 0.3 to 3 nM in assay [2] (setting [6]).

`Cc1cc(N)cc(-c2nc3c4c(nc(OCC5(CN6C[C@H](C)O[C@@H](C)C6)CC5(F)F)nc4c2F)N2C[C@H]4CC[C@H](N4)[C@H]2CCO3)c1C(F)(F)F` (single isomer, unassigned) [Example 26]: the IC50 lay in the range of 3 to 1000 nM in assay [1] (setting [5]) and 0.3 to 3 nM in assay [2] (setting [6]).

Turning to `Cc1cc(N)cc(-c2nc3c4c(nc(OCC5(CN6CCC(C)(O)C6)CC5)nc4c2F)N2C[C@H]4CC[C@H](N4)[C@H]2CCO3)c1C(F)(F)F` (stereo partly drawn) [Example 93, 1-((1-((((6aR,7S, 10R)-2-(5-amino-3-methyl-2-(trifluoromethyl)phenyl)-1-fluoro-5,6,6a,7,8,9,10,11-octahydro-4-oxa-3,11a,12,14,15-pentaaza-7,10-methanocyclohepta [4,5]cycloocta[1,2,3-de]naphthalen-13-yl)oxy)methyl)cyclopropyl)methyl)-3-methylpyrrolidin-3-ol], the figures for the IC50 in assay [1] (setting [5]) and in assay [2] (setting [6]) were 3 to 1000 nM and less than 0.3 nM, respectively.

As for `Cc1cc(N)cc(-c2nc3c4c(nc(OCC5(C)CN(C)CCC5C(F)F)nc4c2F)N2C[C@H]4CC[C@H](N4)[C@H]2CCO3)c1C(F)(F)F` (single isomer, unassigned) [Example 245], the values for the IC50 in assay [1] (setting [5]) and in assay [2] (setting [6]) were 0.3 to 3 nM and less than 0.3 nM, respectively.

On to `Cc1cc(N)cc(-c2nc3c4c(nc(OC[C@@]5(C)CCCN(C6COC6)C5)nc4c2F)N2C[C@H]4CC[C@H](N4)[C@H]2CCO3)c1C(F)(F)F` [Example 197, 3-((6aR,7S,10R)-1-fluoro-13-(((S)-3-methyl-1-(oxetan-3-yl)piperidin-3-yl)methoxy)-5,6,6a,7,8,9,10,11-octahydro-4-oxa-3,11a,12,14,15-pentaaza-7,10-methanocyclohepta[4,5]cycloocta[1,2,3-de]naphthalen-2-yl)-5-methyl-4-(trifluoromethyl)aniline], for which the figures for the IC50 in assay [1] (setting [5]) and in assay [2] (setting [6]) were 3 to 1000 nM and less than 0.3 nM, respectively.

As to `Cc1cc(N)cc(-c2nc3c4c(nc(OCC5(CN6[C@@H]7CC[C@H]6CC(F)(F)C7)CC5)nc4c2F)N2C[C@H]4CC[C@H](N4)[C@H]2CCO3)c1C(F)(F)F` [Example 175, 3-((6aR,7S,10R)-13-((1-(((1R,5S)-3,3-difluoro-8-azabicyclo[3.2.1]octan-8-yl)methyl)cyclopropyl)methoxy)-1-fluoro-5,6,6a,7,8,9,10,11-octahydro-4-oxa-3,11a,12,14,15-pentaaza-7,10-methanocyclohepta[4,5]cycloocta[1,2,3-de]naphthalen-2-yl)-5-methyl-4-(trifluoromethyl)aniline], the IC50 is 3 to 1000 nM in assay [1] (setting [5]) and less than 0.3 nM in assay [2] (setting [6]).

As to `Cc1cc(N)cc(-c2nc3c4c(nc(OCC5(C6CCCN6C)CC5)nc4c2F)N2C[C@H]4CC[C@H](N4)[C@H]2CCO3)c1C(F)(F)F` (single isomer, unassigned) [Example 133], the results for the IC50 in assay [1] (setting [5]) and in assay [2] (setting [6]) were 3 to 1000 nM and less than 0.3 nM, respectively.
